The values below come from patent publication US4168317A, “Amino derivatives of 4-hydroxy-1,2-benzisothiazole” (BASF Aktiengesellschaft, priority 1977, dated 1979).

Data set [1] concerns the target T1, β2-receptors on the blood vessels (Rattus norvegicus, UniProt P10608).
T1 construct: was tested on rats, weighing 230-280 g, under urethane narcosis; from tissue; host or cells: blood vessels in the living rat under urethane narcosis (in vivo)
Description: β2-sympatholytic action: inhibition of Isoproterenol blood pressure reduction, rats under urethane narcosis. The data set is classed as in vivo. The note with it: for β2-Sympatholytic action R.A. (relative activity): Propranolol = 1.00, intravenous; for Q: quotient defined in footnote 6 (drawing 8), cardioselectivity, β2 versus β1 dose; for ED50: rat, iv, read-out: β2-Sympatholytic action ED 50 (dose which inhibits the Isoproterenol blood pressure reduction by 50%).

A further data set concerns the target T2, cardiac β1-receptors (Rattus norvegicus, UniProt P18090).
T2 construct: in pithed rats (Sprague-Dawley, Mus rattus; weight 230-280 g) causes increases in pulse rate; from tissue; host or cells: heart in the living pithed Sprague-Dawley rat (in vivo)
Kind of data set: β1-sympatholytic action: inhibition of Isoproterenol tachycardia, pithed rats. It is filed as in vivo, rats (Sprague-Dawley. Particulars: for β1-Sympatholytic action R.A. (relative activity): Propranolol = 1.00, pithed rats, intravenous; for ED50: rat, iv, 5 min, read-out: β1-Sympatholytic action ED 50 (dose which inhibits the Isoproterenol tachycardia by 50%); for cardiac β1-receptors blocked at doses lower than those required to block β2-receptors / β1-sympatholytic activity greater than that of Propranolol: rats.

A further data set is described as follows: in vivo. The note with it: mouse; for LD50 at 24 h: ip. The method, then: The acute toxicity was determined on groups of 10 or 20 female Swiss mice weighing 20-26 g, the compounds being administered intraperitoneally.

Structures can show the parent of a compound that is named as a salt.

A word on the LD50: it is the dose at which mortality reaches 50%. Read a low LD50 as greater toxicity.

T2 sequence (P18090 whole entry): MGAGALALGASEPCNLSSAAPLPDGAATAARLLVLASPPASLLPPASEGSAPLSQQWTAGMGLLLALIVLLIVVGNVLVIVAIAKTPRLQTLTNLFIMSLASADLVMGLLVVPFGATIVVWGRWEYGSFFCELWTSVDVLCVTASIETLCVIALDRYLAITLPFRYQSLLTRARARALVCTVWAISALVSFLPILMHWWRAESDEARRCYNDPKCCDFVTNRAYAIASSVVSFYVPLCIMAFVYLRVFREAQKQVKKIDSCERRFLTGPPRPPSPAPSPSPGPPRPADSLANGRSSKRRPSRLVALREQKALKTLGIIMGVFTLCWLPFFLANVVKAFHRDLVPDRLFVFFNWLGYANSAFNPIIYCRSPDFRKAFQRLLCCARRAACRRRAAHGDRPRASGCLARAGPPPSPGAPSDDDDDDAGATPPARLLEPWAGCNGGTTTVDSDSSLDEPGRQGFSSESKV
T1 sequence (P10608 whole entry): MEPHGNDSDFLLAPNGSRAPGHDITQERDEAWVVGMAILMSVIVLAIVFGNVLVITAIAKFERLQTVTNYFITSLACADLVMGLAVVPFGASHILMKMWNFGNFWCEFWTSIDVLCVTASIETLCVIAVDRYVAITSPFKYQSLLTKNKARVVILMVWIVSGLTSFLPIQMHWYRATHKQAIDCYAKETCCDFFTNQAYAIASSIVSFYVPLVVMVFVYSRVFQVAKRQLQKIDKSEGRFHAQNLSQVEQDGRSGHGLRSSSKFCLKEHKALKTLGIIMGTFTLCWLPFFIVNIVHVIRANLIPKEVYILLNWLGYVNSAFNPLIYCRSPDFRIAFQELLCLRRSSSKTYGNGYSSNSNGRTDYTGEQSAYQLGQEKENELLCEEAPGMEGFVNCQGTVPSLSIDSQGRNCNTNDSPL

`CC(C)NCC(O)COc1cccc2sncc12` (stereo not drawn) [Example 1, 4-(2-hydroxy-3-isopropylaminopropoxy)-1,2-benzisothiazole hydrochloride]: the “β2-Sympatholytic action R.A. (relative activity)” value in data set [1] (rats under urethane narcosis) was 2.71. Further, in data set [1], the Q was 2.21 and the ED50 is 4.2 µg/kg. At cardiac β1-receptors, the “β1-Sympatholytic action R.A. (relative activity)” value came out at 6.47, the ED50 was found to be 1.9 µg/kg and the “cardiac β1-receptors blocked at doses lower than those required to block β2-receptors” value is on record as 2 times. Moreover, in the data set “in vivo”, the “Therapeutic range, absolute” value is 32,700; the “Therapeutic range, relative” value is 3.72; the LD50 at 24 h turned out to be 62100 µg/kg.
Regarding `CC(C)(C)NCC(O)COc1cccc2sncc12` (stereo not drawn) [Example 2, 4-(2-hydroxy-3-tert.-butylamino-propoxy)-1,2-benzisothiazole hydrochloride], in data set [1] (rats under urethane narcosis), the “β2-Sympatholytic action R.A. (relative activity)” value came to 2.84. For the same molecule, in data set [1], the Q is recorded as 2.47 and the ED50 was 4.02 µg/kg. At cardiac β1-receptors, the “β1-Sympatholytic action R.A. (relative activity)” value was 7.55 and the ED50 stood at 1.63 µg/kg. In “in vivo”, the “Therapeutic range, absolute” value is listed as 94,500; the “Therapeutic range, relative” value is 10.76; the LD50 at 24 h came to 154000 µg/kg.
In the case of `CCC(C)NCC(O)COc1cccc2sncc12` (stereo not drawn) [Example 14, 4-(2-Hydroxy-3-sec.-butylamino-propoxy)-1,2-benzisothiazole], in data set [1] (rats under urethane narcosis), the “β2-Sympatholytic action R.A. (relative activity)” value stood at 1.08. For the same molecule, in data set [1], the Q is listed as 6.93 and the ED50 stood at 10.6 µg/kg. On cardiac β1-receptors, the “β1-Sympatholytic action R.A. (relative activity)” value turned out to be 8.04, the ED50 is 1.53 µg/kg and the “β1-sympatholytic activity greater than that of Propranolol” value was found to be 8 times. Moreover, in the data set “in vivo”, the “Therapeutic range, relative” value worked out at 7.18; the selectivity ratio is 63000; the LD50 at 24 h turned out to be 96400 µg/kg.
On to `CCC(C)(C)NCC(O)COc1cccc2sncc12` (stereo not drawn) [Example 15, 4-[2-Hydroxy-3-(2-methyl-butyl-2-amino)-propoxy]-1,2-benzisothiazole], for which, in data set [1] (rats under urethane narcosis), the “β2-Sympatholytic action R.A. (relative activity)” value worked out at 1.38. Moreover, in data set [1], the Q is 4.48 and the ED50 was 8.24 µg/kg. On cardiac β1-receptors, the “β1-Sympatholytic action R.A. (relative activity)” value worked out at 6.68 and the ED50 was found to be 1.84 µg/kg. In “in vivo”, the “Therapeutic range, relative” value came to 8.92; the selectivity ratio was found to be 78300; the LD50 at 24 h came out at 144000 µg/kg.
Regarding `CCC(C)(CC)NCC(O)COc1cccc2sncc12` (stereo not drawn) [Example 16, 4-[2-Hydroxy-3-(3-methyl-pentyl-3-amino)-propoxy]-1,2-benzisothiazole], the “β2-Sympatholytic action R.A. (relative activity)” value in data set [1] (rats under urethane narcosis) is 0.94. In data set [1], the Q turned out to be 3.69 and the ED50 came to 12.1 µg/kg. For the same molecule, on cardiac β1-receptors, the “β1-Sympatholytic action R.A. (relative activity)” value amounted to 3.75 and the ED50 turned out to be 3.28 µg/kg. In addition, in the data set “in vivo”, the “Therapeutic range, relative” value was determined as 4.44; the selectivity ratio came out at 39000; the LD50 at 24 h is 128000 µg/kg.
Consider `C#CC(C)(C)NCC(O)COc1cccc2sncc12` (stereo not drawn) [Example 27, 4-[2-Hydroxy-3-(2-methyl-but-3-ynyl-2-amino)-propoxy]-1,2-benzisothiazole], for which, in data set [1] (rats under urethane narcosis), the “β2-Sympatholytic action R.A. (relative activity)” value is recorded as 1.98. In data set [1], the Q is on record as 2.50 and the ED50 is 5.75 µg/kg. Moreover, on cardiac β1-receptors, the “β1-Sympatholytic action R.A. (relative activity)” value is on record as 5.35 and the ED50 was determined as 2.3 µg/kg. Besides, in the data set “in vivo”, the “Therapeutic range, relative” value stood at 9.11; the selectivity ratio turned out to be 80000; the LD50 at 24 h turned out to be 184000 µg/kg.
With `COCC(C)NCC(O)COc1cccc2sncc12` (stereo not drawn) [Example 29, 4-[2-Hydroxy-3-(1-methoxy-propyl-2-amino)-propoxy]-1,2-benzisothiazole], in data set [1] (rats under urethane narcosis), the “β2-Sympatholytic action R.A. (relative activity)” value is on record as 0.26. Further, in data set [1], the Q came out at 8.90 and the ED50 worked out at 44 µg/kg. Also, at cardiac β1-receptors, the “β1-Sympatholytic action R.A. (relative activity)” value came out at 2.48, the ED50 was determined as 4.95 µg/kg and the “β1-sympatholytic activity greater than that of Propranolol” value is 2.5 times. Besides, in “in vivo”, the “Therapeutic range, relative” value came out at 3.11; the selectivity ratio is 27300; the LD50 at 24 h stood at 135000 µg/kg.
`CCCC(C)NCC(O)COc1cccc2sncc12` (stereo not drawn) [Example 35, 4-[2-Hydroxy-3-(pentyl-2-amino)-propoxy]-1,2-benziso-thiazole]: the “β2-Sympatholytic action R.A. (relative activity)” value in data set [1] (rats under urethane narcosis) is listed as 0.42. In data set [1], the Q was determined as 10.70 and the ED50 came to 27 µg/kg. For the same molecule, at cardiac β1-receptors, the “β1-Sympatholytic action R.A. (relative activity)” value was found to be 4.88, the ED50 came to 2.52 µg/kg and the “cardiac β1-receptors blocked at doses lower than those required to block β2-receptors” value is given as 11 times. In addition, in the data set “in vivo”, the “Therapeutic range, relative” value is recorded as 2.72; the selectivity ratio was determined as 23900; the LD50 at 24 h turned out to be 60300 µg/kg.
For `CC(C)NCC(O)c1ccc(O)c(O)c1` (stereo not drawn) [Isoproterenol, reference compound], the “reduction of mean pressure of the carotid artery” value in data set [1] (Isoproterenol 0.215 μg/kg intravenously, rats under urethane narcosis, average) amounted to 30%.
